These are literature values, as cited in US20090098202A1, “Extended Release Formulation” (BOEHRINGER INGELHEIM INTERNATIONAL GMBH, priority 2006, published 2009).

The conditions of series [1]: in the elderly.
Experiment in series [2]: not given
This is another data set of the same source.

Counter-ions that a name gives are not always drawn.

`CCCN[C@H]1CCc2nc(N)sc2C1` [Pramipexole dihydrochloride monohydrate, pramipexole dihydrochloride monohydrate]: the “solubility in buffer media” value (between pH 2 and pH 7.4) is recorded as “above 10 mg/ml”. The Water solubility result (water) is on record as “more than 20 mg/ml”.

In the case of `CCCN[C@H]1CCc2nc(N)sc2C1` [Pramipexole, (S)-2-Amino-4,5,6,7-tetrahydro-6-(propylamino)benzothiazole], the “elimination half-life (t1/2[h])” value in series [1] is 12 h. Also, in series [2] (in solution, light), the stability in solution entry is given as “light sensitive”. The “stability in the solid state” value in series [2] (solid state) is “very stable”.
